The record followed here is article PMC9143043, “Synthesis and Biological Evaluation of 5′-O-Fatty Acyl Ester Derivatives of 3′-Fluoro-2′,3′-dideoxythymidine as Potential Anti-HIV Microbicides” (Molecules, 2022).

Common to all, as to format: cell-based
Data set [1] has as its system HIV-1 strain IIIB (lymphocytotropic strain). The experiment in a line: Single-round infection assay, cell-free X4 virus (lymphocytotropic strain). To be noted: Human immunodeficiency virus 1, IIIB. How it is done: (§1) Anti-HIV activities of the compounds were evaluated according to the previously reported procedure. In summary, the HeLa (Human cervical carcinoma: ATCC CCL-2.1) cell line was used to measure the inactivation of both the cell-free virus preparations and virus-infected cell preparations. The cells were plated in culture plates 24 h prior to each experiment. Cell-free viral preparations of HIV-1 strains IIIB (lymphocytotropic strain) and BaL (monocytotropic strain) were used for the cell-free assay. For the cell-associated assay, the SulT1 cells were infected with IIIB virus 5 days prior to the experiment. Cell-free virus and virus-infected cells were mixed with different compounds and diluted to make different concentrations. The mixture was further diluted with the buffer and added to the HeLa cells.

Data set [2] concerns HIV-1 strain BaL (monocytotropic strain). The experiment in a line: Single-round infection assay, cell-free R5 virus (monocytotropic strain). To be noted: Human immunodeficiency virus 1, BAL. Here is the method:
as §1

A further data set can be described thus: Cytotoxicity assay (MTS). To be noted: human, HeLa cells (ATCC CCL-2.1).
The test system of data set [3] is cell-associated HIV-1 IIIB (infected SulT1 cells). The experiment in a line: Cell-associated transmission assay (IIIB). To be noted: for EC50: Human immunodeficiency virus 1, IIIB. Here is the method:
as §1

Setting [4] is: read-out: (X4) EC50, Table 2, single-round infection assay.
Setting [5] is: read-out: (R5) EC50, Table 2, single-round infection assay.
[6] abbreviates: Table 2, MTS, 50% effective concentration.
Setting [7] is: read-out: (CA) EC50, Table 2, cell-associated transmission assay (IIIB).
Setting [8] is: read-out: (X4) EC50, Table 3, viral entry inhibition assay.
The mark [9] stands for this setting: read-out: (R5) EC50, Table 3, viral entry inhibition assay.
The mark [10] stands for this setting: Table 3, conjugates vs physical mixtures.
[11] abbreviates: read-out: (CA) EC50, Table 3, cell-to-cell transmission assay (IIIB).

Like-named read-outs stand apart in the source and are kept apart here. Some results are limits rather than exact numbers.

For the compound `CCSCCCCCCCCCCCC(=O)OC[C@H]1O[C@@H](n2cc(C)c(=O)[nH]c2=O)C[C@@H]1N=[N+]=[N-]` [Compound 9], the EC50 in data set [1] (setting [4]) is 7.7 µM; in data set [2] (setting [5]), 5.2 µM; in “Cytotoxicity assay (MTS)” (setting [6]) it was > 101 µM; in data set [3] (setting [7]), 90.7 µM.
Regarding `Cc1cn([C@H]2C[C@H](N=[N+]=[N-])[C@@H](COC(=O)CCCCCCCCCCCBr)O2)c(=O)[nH]c1=O` [Compound 12], the EC50 in data set [1] (setting [4]) is 14.8 µM; in data set [1] (setting [8]) it was 14.8 µM; in data set [2] (setting [5]) it was 4.6 µM; in data set [2] (setting [9]), 4.6 µM; in “Cytotoxicity assay (MTS)” (setting [6]) it was > 190 µM; in “Cytotoxicity assay (MTS)” (setting [10]) it was > 190 µM. The half-maximal effective concentration (EC50) in data set [3] (setting [7]) and in data set [3] (setting [11]) was > 190 µM throughout.
On to `CCCCCSCCCCCCCC(=O)OC[C@H]1O[C@@H](n2cc(C)c(=O)[nH]c2=O)C[C@@H]1F` [Compound 15], for which the EC50 in data set [1] (setting [4]) was 11.4 µM; in data set [2] (setting [5]) it was 4.4 µM; in the data set “Cytotoxicity assay (MTS)” (setting [6]), > 64 µM; in data set [3] (setting [7]), > 64 µM.
Consider `CCCCCSCCCCCCCC(=O)OC[C@H]1O[C@@H](n2cc(C)c(=O)[nH]c2=O)C[C@@H]1N=[N+]=[N-]` [Compound 16], for which the EC50 is 9.3 µM in data set [1] (setting [4]), 12.9 µM in data set [2] (setting [5]), > 202 µM in the data set “Cytotoxicity assay (MTS)” (setting [6]) and > 202 µM in data set [3] (setting [7]).
Regarding `CCCCCOCCCCCCCC(=O)OC[C@H]1O[C@@H](n2cc(C)c(=O)[nH]c2=O)C[C@@H]1N=[N+]=[N-]` [Compound 18], the EC50 in data set [1] (setting [4]) is 4.8 µM; in data set [2] (setting [5]) it was 6.1 µM; in the data set “Cytotoxicity assay (MTS)” (setting [6]), > 209 µM; in data set [3] (setting [7]), > 209 µM.
As for `CCCCCCCCCCCCCC(=O)OC[C@H]1O[C@@H](n2cc(C)c(=O)[nH]c2=O)C[C@@H]1N=[N+]=[N-]` [Compound 7], the half-maximal effective concentration (EC50) in data set [1] (setting [4]) is 3.1 µM; in data set [1] (setting [8]) it was 3.1 µM; in data set [2] (setting [5]) it was 5 µM; in data set [2] (setting [9]), 5 µM; in the data set “Cytotoxicity assay (MTS)” (setting [6]) it was > 629 µM; in the data set “Cytotoxicity assay (MTS)” (setting [10]), > 629 µM. Moreover, the EC50 in data set [3] (setting [7]) and in data set [3] (setting [11]) was > 629 µM each time.
For the compound `CCCCCCCCCCOCCC(=O)OC[C@H]1O[C@@H](n2cc(C)c(=O)[nH]c2=O)C[C@@H]1N=[N+]=[N-]` [Compound 17], the EC50 in data set [1] (setting [4]) was 6.7 µM; in data set [2] (setting [5]) it was 2.1 µM; in “Cytotoxicity assay (MTS)” (setting [6]) it was > 209 µM; in data set [3] (setting [7]), > 209 µM.
For `CCCCCCCCCCCCC(OC)C(=O)OC[C@H]1O[C@@H](n2cc(C)c(=O)[nH]c2=O)C[C@@H]1N=[N+]=[N-]` (mixture of isomers) [Compound 14, (±)-3′-Azido-2′,3′-dideoxy-5′-O-(2-methoxyteradecanoyl)thymidine], the EC50 in data set [1] (setting [4]) was 9.7 µM; in data set [2] (setting [5]), 6.7 µM; in “Cytotoxicity assay (MTS)” (setting [6]), > 197 µM; in data set [3] (setting [7]) it was > 197 µM.
Regarding `Cc1cn([C@H]2C[C@H](N=[N+]=[N-])[C@@H](CO)O2)c(=O)[nH]c1=O` [AZT, 3′-azido-2′,3′-dideoxythymidine, reference compound], the EC50 in data set [1] (Table 2, single-round infection assay, read-out: (X4) EC50) is 10.9 µM; in data set [1] (Table 3, viral entry inhibition assay, read-out: (X4) EC50), 10.9 µM; in data set [2] (Table 2, single-round infection assay, read-out: (R5) EC50) it was 14.2 µM; in data set [2] (Table 3, viral entry inhibition assay, read-out: (R5) EC50) it was 14.2 µM; in the data set “Cytotoxicity assay (MTS)” (setting [6]) it was > 375 µM; in the data set “Cytotoxicity assay (MTS)” (setting [10]) it was > 374 µM. The EC50 in data set [3] (setting [7]) is > 375 µM; in data set [3] (setting [11]), > 374 µM. In addition, the “activity against cell-associated virus (in words)” value in data set [3] is “only inconsistently and moderately active”.
As to `Cc1cn([C@H]2C[C@H](F)[C@@H](COC(=O)CCCCCCCCCCCBr)O2)c(=O)[nH]c1=O` [Compound 11], the EC50 in data set [1] (setting [4]) is 1.8 µM; in data set [2] (setting [5]) it was < 0.2 µM; in “Cytotoxicity assay (MTS)” (setting [6]), > 198 µM; in data set [3] (setting [7]), > 198 µM.
For the compound `CCCCCCCCCCCCCCC(=O)OC[C@H]1O[C@@H](n2cc(C)c(=O)[nH]c2=O)C[C@@H]1N=[N+]=[N-]` [Compound 10], the EC50 is 17.9 µM in data set [1] (setting [4]), 4.5 µM in data set [2] (setting [5]), > 611 µM in the data set “Cytotoxicity assay (MTS)” (setting [6]) and > 611 µM in data set [3] (setting [7]).
